These results are taken from ChEMBL document CHEMBL1201862, “PubChem BioAssay data set” (2004).

Molecules are shown by their SMILES.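 A five-concentration, 48-hour dose response in 96-well plates underlies each endpoint, interpolated linearly between surrounding concentrations. GI50 is the concentration that inhibits growth by half.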 The source made the active and inactive calls. No stated cut-off is given here; in the data, active = GI50 up to about 1.1 µM and inactive = higher.

Test systems include DLD-1; DMS-114; HOP-18; KM-20L2; RXF 631; BT-549; NCI/ADR-RES; PC-3; T47D.
Holding throughout (assay): inhibition of tumour cell growth, NCI panel, 48 h

As to `Fc1ccc2c(c1)SC1Oc3ccccc3-c3c1c-2nn3-c1ccccc1` (configuration not stated), the GI50 was > 100 µM (inactive) in the assay with DLD-1; > 100 µM (inactive) with DMS-114; 27 µM (inactive) in the assay with HOP-18; > 100 µM (inactive) with KM-20L2; 7.69 µM (inactive) in the assay with RXF 631.
Take `O=C(O)c1ccc(O)c(/N=N/c2cc(S(=O)(=O)O)c3ccccc3c2O)c1`: the GI50 was > 100 µM (inactive) with DLD-1, 82.6 µM (inactive) in the assay on DMS-114, > 100 µM (inactive) with KM-20L2 and > 100 µM (inactive) in the assay on RXF 631.
As to `O=C(CC1(O)C(=O)Nc2ccc(Br)cc21)c1ccc(Cl)cc1Cl` (configuration not stated), the GI50 is 47.1 µM (inactive) in the assay with DLD-1, 20.9 µM (inactive) with DMS-114, > 100 µM (inactive) in the assay with KM-20L2 and 43.9 µM (inactive) in the assay with RXF 631.
As for `Cc1ccc(S(=O)(=O)c2ccccc2[N+](=O)[O-])cc1`, the GI50 in the assay on DLD-1 is > 100 µM (inactive); in the assay with DMS-114, 44.6 µM (inactive); with KM-20L2, > 100 µM (inactive); in the assay on RXF 631 it was 49.1 µM (inactive).
Regarding `NC(=O)N/N=C1\CCCCc2ccccc21`, the GI50 in the assay on BT-549, with NCI/ADR-RES, in the assay on PC-3 and in the assay with T47D was > 10 µM (inactive) throughout.
For `CNS(=O)(=O)NN(C)S(=O)(=O)c1ccc2ccccc2c1`, the GI50 in the assay with DLD-1, with DMS-114, in the assay on KM-20L2 and in the assay with RXF 631 was > 100 µM (inactive) each time.
For the compound `COc1cccc(OCC(=N/NC(=O)c2ccncc2)/N=C/c2cccnc2)c1`, the GI50 with BT-549, with NCI/ADR-RES, in the assay on PC-3 and in the assay on T47D was > 100 µM (inactive) each time.
In the case of `CCCC(=O)N[C@@H](Cc1cc(I)c(O)c(I)c1)C(=O)NCCCNCCCCNCCCNC(=O)[C@@H](N)CCCN=C(N)N`, the GI50 with DMS-114 and in the assay with KM-20L2 was > 100 µM (inactive) in each case.
Consider `O=C1CCCC/C1=C1\C(=O)Nc2cc(F)ccc21`, for which the GI50 with DLD-1, in the assay on DMS-114, with HOP-18 and in the assay on KM-20L2 was > 100 µM (inactive) each time.
For the compound `COc1c(Sc2ccccc2)cc(Sc2ccccc2)c2cccnc12`, the GI50 with DLD-1 is 27.9 µM (inactive); with DMS-114, 24.1 µM (inactive); in the assay with HOP-18, 0.0263 µM (active); in the assay with KM-20L2 it was 21.2 µM (inactive); in the assay with RXF 631, 27.9 µM (inactive).
Take `O=C1C(Nc2ccc(S(=O)(=O)Nc3cnc4ccccc4n3)cc2)=C/C(=N\c2ccc(S(=O)(=O)Nc3cnc4ccccc4n3)cc2)c2ccccc21`: the GI50 in the assay with DLD-1 is 17.9 µM (inactive); in the assay with DMS-114 it was 21.2 µM (inactive); with HOP-18 it was 13.7 µM (inactive); with KM-20L2 it was 17.7 µM (inactive); with NCI/ADR-RES, 44.6 µM (inactive); in the assay on PC-3, 20.5 µM (inactive).
On to `COc1ccc(CN2CC(C)(C)C2=O)c(OC)c1`, for which the GI50 in the assay on DMS-114, in the assay with HOP-18, in the assay on KM-20L2 and with RXF 631 was > 100 µM (inactive) throughout.
For the compound `CC(=O)CC(=O)ON(C)C(C)=O`, the GI50 in the assay with DLD-1, with DMS-114 and with KM-20L2 was > 100 µM (inactive) in each case.
Consider `O=C(CC(=O)C1CCOC1=O)C(=O)Nc1ccc(Cl)cc1` (configuration not stated), for which the GI50 in the assay with DLD-1, in the assay with DMS-114, with KM-20L2 and in the assay with RXF 631 was > 100 µM (inactive) in each case.
For the compound `CN(C)CC/[N+]([O-])=C(/c1ccccc1)C12CC3CC(CC(C3)C1)C2`, the GI50 in the assay on DLD-1 is 16.1 µM (inactive); in the assay with DMS-114, 20.2 µM (inactive); in the assay with HOP-18, 20.9 µM (inactive); with KM-20L2, 11.5 µM (inactive); with RXF 631 it was 14 µM (inactive).
In the case of `CCCN1CN(C(C(=O)N[C@@H]2C(=O)N3C2SC(C)(C)C3C(=O)O)c2ccc(O)cc2)CSC1=S` (some centres not stated), the GI50 was 52.8 µM (inactive) with DLD-1, 19.1 µM (inactive) in the assay on DMS-114, > 100 µM (inactive) in the assay on HOP-18 and > 100 µM (inactive) in the assay on KM-20L2.
Turning to `O=C1/C(=C/c2ccccc2)CN(C(=O)OCC(Cl)(Cl)Cl)C/C1=C\c1ccccc1`, the GI50 with DLD-1 is 1.91 µM (inactive); in the assay on DMS-114 it was 1.95 µM (inactive); with HOP-18 it was 3.57 µM (inactive); in the assay on KM-20L2 it was 2.44 µM (inactive).
For `CC(CC(=O)Nc1ccc(NC(=O)CC(C)/N=N\C(N)=O)cc1)/N=N\C(N)=O` (configuration not stated) the same measures were 34.5 µM (inactive), 15.6 µM (inactive), > 100 µM (inactive) and > 100 µM (inactive).
Turning to `COc1ccc2cc3nc(O)cc(O)c3cc2c1OC`, the GI50 with DMS-114, with HOP-18, with KM-20L2 and in the assay on RXF 631 was > 100 µM (inactive) throughout.
Take `COc1ccc2c(c1)CC[C@@H]1C2CC[C@]2(C)C(=N\O)/C(=N/O)CC12` (some centres not stated): the GI50 is 13.1 µM (inactive) in the assay with DLD-1, 15.7 µM (inactive) in the assay with HOP-18 and 6.21 µM (inactive) with KM-20L2.
As to `Clc1ccccc1C1=NN(c2ccccc2)C2c3cc(Br)ccc3OCC12` (configuration not stated), the GI50 in the assay on DLD-1, in the assay with DMS-114, in the assay with HOP-18 and with KM-20L2 was > 100 µM (inactive) in each case.
`CN(/C(=N\O)c1ccccc1)c1ccccc1`: the GI50 was 29.4 µM (inactive) in the assay on DLD-1, 25.6 µM (inactive) in the assay with DMS-114, < 0.01 µM (active) in the assay with HOP-18 and 17.3 µM (inactive) with KM-20L2.
As to `COc1ccc(C2=NNC(=O)OC2c2ccccc2)cc1` (configuration not stated), the GI50 in the assay with DMS-114 was 71.8 µM (inactive); with HOP-18, 57.9 µM (inactive); with KM-20L2, 41.2 µM (inactive); in the assay on RXF 631 it was > 100 µM (inactive).
For the compound `C/C(=N\NS(=O)(=O)c1ccccc1)c1ccc(Cl)c(Cl)c1`, the GI50 was 41.8 µM (inactive) with DLD-1, 39.2 µM (inactive) with DMS-114, 49.8 µM (inactive) in the assay with HOP-18 and 72.8 µM (inactive) with KM-20L2.
Regarding `COC1CC(n2cnc3c(N)ncnc32)OC1CO` (configuration not stated), the GI50 in the assay with DLD-1, in the assay with DMS-114 and with KM-20L2 was > 100 µM (inactive) throughout.
As for `Nc1ccc(C(=O)/C=C/c2ccccc2O)cc1`, the GI50 in the assay on DLD-1, in the assay on KM-20L2 and in the assay with RXF 631 was > 100 µM (inactive) in each case.
In the case of `Cc1[nH]c2ccccc2c1C1Cc2ccccc2N1C(=O)/C=C/C=C/c1ccccc1` (configuration not stated), the GI50 in the assay with DLD-1, in the assay with DMS-114 and in the assay with KM-20L2 was > 100 µM (inactive) in each case.
As to `O=C1C2Nc3ccccc3SC2C(=O)N1c1cccc([N+](=O)[O-])c1` (configuration not stated), the GI50 was 48.9 µM (inactive) with DLD-1, 44.1 µM (inactive) with DMS-114, > 20.5 µM (inactive) in the assay with KM-20L2 and > 100 µM (inactive) in the assay on RXF 631.
In the case of `COc1ccccc1C(=O)N(Cc1ccccc1)c1ccc(Cl)c(C(=O)OC(C)C)c1`, the GI50 in the assay with BT-549 was 34.4 µM (inactive); in the assay with DLD-1, 18.1 µM (inactive); with DMS-114, 12.6 µM (inactive); with HOP-18, 14 µM (inactive); in the assay with KM-20L2, 30.3 µM (inactive); in the assay on NCI/ADR-RES, 20.2 µM (inactive). For the same compound, the figures for the GI50 in the assay on PC-3, in the assay with RXF 631 and in the assay with T47D were 7.53 µM (inactive), 17 µM (inactive) and 5.52 µM (inactive), respectively.
For `C/C(CC(=O)Nc1ccc(C)c(C)c1)=N\NC(N)=S`, the GI50 in the assay on DLD-1, with DMS-114, with KM-20L2 and in the assay on RXF 631 was > 100 µM (inactive) throughout.
Consider `Cn1c(=O)c(C(=O)NC23CC4CC(CC(C4)C2)C3)c(O)c2ccccc21`, for which the GI50 in the assay with DLD-1 was 50.7 µM (inactive); in the assay with DMS-114, 45.6 µM (inactive); with KM-20L2, 28.9 µM (inactive).
`CCOc1ccc(NC(=O)CC2SC(Nc3ccc(C)cc3)=NC2=O)cc1` (configuration not stated): the GI50 with DLD-1, in the assay on DMS-114, in the assay on KM-20L2 and in the assay with RXF 631 was > 100 µM (inactive) throughout.
Consider `Nc1ncnc2c1N=CN(Oc1ccccc1)N2`, for which the GI50 in the assay on DLD-1, with DMS-114, in the assay with KM-20L2 and in the assay with RXF 631 was > 100 µM (inactive) each time.
Take `c1ccc(Cc2cccc3cc(-c4ccc(-c5ccccc5)cc4)[nH]c23)cc1`: the GI50 is > 100 µM (inactive) with BT-549, > 100 µM (inactive) in the assay with NCI/ADR-RES, 61.9 µM (inactive) in the assay with PC-3 and > 100 µM (inactive) in the assay on T47D.
Take `Cc1cc(N(CCC#N)CCC#N)ccc1/C=C(\NC(=O)/C=C/c1ccccc1)C(=O)N=[N+]=[N-]`: the GI50 in the assay on DLD-1, in the assay on DMS-114 and with KM-20L2 was > 100 µM (inactive) in each case.
On to `O=C1OC(O)C(Oc2ccc(Cl)cc2)=C1Cl` (configuration not stated), for which the GI50 with DLD-1 is > 100 µM (inactive); in the assay with DMS-114 it was 39.1 µM (inactive); in the assay on KM-20L2 it was > 100 µM (inactive); in the assay on RXF 631, > 100 µM (inactive).
With `CCOC(=O)c1cn2c([nH]c3ccccc32)c(C#N)c1=O`, the GI50 in the assay on DLD-1 was 99.5 µM (inactive); with HOP-18, > 100 µM (inactive); in the assay with KM-20L2, > 100 µM (inactive); in the assay with RXF 631, > 100 µM (inactive).
In the case of `O=C1c2cccc(O)c2C(=O)c2c(O)cccc21` [DANTHRON], the values for the GI50 in the assay on DLD-1, in the assay on DMS-114 and in the assay on KM-20L2 were 45 µM (inactive), 38 µM (inactive) and 99.1 µM (inactive), respectively.
